The source of these data is patent US5871779A, “Treatment of arthropathies with vanadate compounds or analogues thereof” (Mount Sinai Hospital Corporation, priority 1996, dated 1999).

One data set deals with MCF7 (ADR). Put plainly: MTT cytotoxicity assay, MCF7 (ADR). Particulars: MCF7 (ADR), 72 hours; read-out: IC50 Value. The format is cell-based, human. The procedure: (§1) The relative cytotoxicity of various compounds on tumor cell lines was investigated as follows. Cytotoxicity was measured by the MTT microculture tetrazolium colorimetric assay for all cell lines. The relative cytotoxicity of Na3 VO4 and VOSO4 was investigated using the following tumor cell lines: P388(WT) murine leukemia, P388 (ADR) murine leukemia, Lewis murine lung, MCF7 (WT) human breast, […] human lung, K562 human erythroleukemia, A431 human epidermal, LS180 human colon and SK-OV-3 human ovarian. The relative cytotoxicity of doxorubicin, Na3 VO4 and VOSO4 was investigated using the following tumor cell lines: P388(WT) murine leukemia, P388 (ADR) murine leukemia, MCF7(WT) human breast and MCF7 (ADR) human breast. The relative cytotoxicity of BMOV, BEOV and naglivan was investigated using the following tumor cell lines: P388(WT) murine leukemia, P388 (ADR) murine leukemia, Lewis murine lung, H460 human lung, K562 human erythroleukemia, and SK-OV-3 human ovarian.
The cells were plated (number of cells/well was different from cell line to cell depending on the dividing rate) in a 96-well microculture plate 24 hours prior to the delivery of the vanadium compounds. Serial concentrations of solutions of the test compounds (0.05-100 μM) were delivered to the corresponding wells. A blank column (without cells) and a control column (with cells without vanadium) were left. The cells were incubated for 72 hours continuously. An MTT solution was added to each well after this incubation period and the cells were incubated for 4 more hours for the completion of the dyeing process. The medium was removed find DMSO was added to each well. The absorbance of each well was read with a Titertek Multiskan (310C) spectrophotometer at 570 nm. The percentage of the absorbance of each vanadium concentration relative to the control calculated and the value of the 50% growth inhibition concentration (IC50) was obtained from the % control versus concentration plot. Each assay was repeated three times and the reported IC50 values were the mean of these three runs.
(In general: Tetrazolium assays rely on reduction of a dye to a coloured formazan, in cell work by metabolically active cells.)

The subject of data set [1] is MDAY-D2 tumor. In words: MDAY-D2 tumor growth in vivo, orthovanadate, vanadyl sulphate, vanadyl hydroperoxide (Example 6B). Also noted: species or system mice. From the text: (§2) In order to examine the ability of vanadyl compounds to reduce tumor formation, growth and metastases, a specific animal model which allows investigation of all of these processes in the same animal was chosen. This model involves the injection of a metastatic haematopoietic cell line, MDAY-D2, into mice subcutaneously. These cells form a tumor at the site of injection and its size can be easily determined. In addition, these cells metastasize to the liver and metastases can be detected histologically after day 17 to 19. This model provides a very sensitive and reproducible approach to investigate the effect of vanadyl compounds on tumor growth and metastases.
In a separate experiment using the same animal model, the effect of orthovanadate, vanadyl sulphate and vanadyl hydroperoxide administration on tumor growth in vivo was examined. On Day 1, 20 mice were injected with 2×10^5 MDAY-D2 cell subcutaneously. The mice were divided into four groups of five mice. At day 5, the animals were injected subcutaneously with 50 μl of water alone or containing 10 mg/ml of orthovanadate, 10 mg/ml of vanadyl sulphate, or 10 mg/ml of vanadyl hydroperoxide. This treatment was continued daily for 16 days. At day 21, the mice were sacrificed and the tumors dissected and weighed.

Data set [2] deals with MDAY-D2 tumor. Put plainly: MDAY-D2 tumor growth in vivo, orthovanadate s.c. (Example 6A). Also noted: species or system mice. As to conditions: 10 mg/ml, 50 μl daily s.c., day 14.
Source text: as §2
Using the animal model described above, the effect of subcutaneous administration of orthovanadate on tumor growth was investigated. A total of 15 mice were injected subcutaneously with 1×10^5 MDAY-D2 cells on Day 1. On Day 5, small tumors could be observed at the site of injection. Five mice were injected daily with 50 μl of water alone and 10 mice were injected daily with water containing 10 mg/ml orthovanadate. On day 14, the mice were sacrificed. The tumors were removed from all the animals, photographed, and weighed. FIG. 11 compares sizes of tumors from two untreated and two orthovanadate treated mice. […] In animals treated with water alone, four mice had tumors weighing between 1.18 and 1.68 gms.

The next data set deals with tumor cell lines. Put plainly: cell death of proliferating tumor cell lines. It is filed as cell-based. The procedure:
Fos and jun activity are also required for cellular proliferation in many tumor cell lines. Accordingly, the effect of orthovanadate on adherent cells and cell suspensions were examined. MDAY-D2 (a mouse lymphoid cell line grown in suspension) and HTB14 cells (an adherent human primary astrocytoma cell line) were incubated in media containing 0-50 μM orthovanadate for 48 hours. The cells were harvested and the number of viable cells determined.

Data set [3] in a line: toxicity of orthovanadate by route of administration. The format is in vivo, mice. From the text:
However, subcutaneous injections of up to 500 μgms orthovanadate is tolerated by the animals. Slow administration of the orthovanadate would decrease toxicity and the animals may tolerate higher doses.

Another data set relates to A431. In words: MTT cytotoxicity assay, A431. It is filed as cell-based, human. Particulars: A431, 72 hours. The procedure: as §1
The cells were plated (number of cells/well was different from cell line to cell depending on the dividing rate) in a 96-well microculture plate 24 hours prior to the delivery of the vanadium compounds. Serial concentrations of solutions of the test compounds (0.05-100 μM) were delivered to the corresponding wells. […] The absorbance of each well was read with a Titertek Multiskan (310C) spectrophotometer at 570 nm. […]

For another data set, the system named is collagenase. Put plainly: synovial collagenase expression in arthritic rats (Northern blot). It is filed as in vivo, rat. Particulars: BMOV-treated (with NAC) vs control, Day 18. The procedure: (§3) Collagenase, stromelysin, and IL-1 expression were quantitated in each group of rats. Selected rats in each group were sacrificed on Day 18 post arthritis onset to measure collagenase, stromelysin, and IL-1 expression via the Northern Blot. Synovial biopsies were pooled and homogenized in the presence of RNASTAT-60 (Tel Test). Total RNA was isolated following the manufacturer's instructions, washed in 70% ethanol, and dissolved in 30 μl RNA loading buffer (Sigma) containing ethidium bromide. The RNA was electrophoresed on a 1% agarose formaldehyde gel and transferred to 0.45 μm nylon filter membrane (Magna NT, MSL). The blot was prehybridised in 50% formamide, 5×SSPE, 5×dendhardts, 1% SDS, 200 μg/ml ssDNA and 50 μg/ml tRNA. The rat collagenase cDNA (bp. 1-550 of locus RATCOL genbank accession M60616), rat stromelysin (ATCC, Rockville, Md.), or rat […] (genbank accession D00403) were labeled by random primed incorporation of ^32 P-dATP (Random Primed Labeling Kit, Boerhinger Manheim). After overnight hybridization at 42° C. overnight, the blot was washed in 1×SSPE at 37° C. and exposed to Kodak X-Ornat AP film for 24 hours at -70° C. with an intensifying screen. The blot was stripped with 50% formamide in 2×SSPE, checked for residual counts and reprobed. The resulting autoradiographs were digitized and analyzed with NIH image software and normalized for RNA loading.

The next data set concerns IL-1α. In words: synovial IL-1α expression in arthritic rats (Northern blot). It is filed as in vivo, rat. As to conditions: BMOV-treated (with NAC) vs control, Day 18. The procedure:
as §3

`[Na+].[Na+].[Na+].[O]=[V]([O-])([O-])[O-]` [orthovanadate, sodium orthovanadate]: the IC50 – broadly, the point on the concentration scale where inhibition reaches its midpoint – was determined as 30.7 µM in the data set on MCF7 (ADR) and 7.6 µM in the data set on A431. For the same molecule, the detectable tumors entry in the data set on MDAY-D2 tumor [1] (day 21) is “one mouse did not have detectable tumors”; with MDAY-D2 tumor [2] it was 2 mice did not have detectable tumors. Further, the animal deaths entry in the data set with MDAY-D2 tumor [1] (groups of five, 10 mg/ml, 50 μl daily s.c.) is “One animal died”. The “efficacy in reducing tumor growth” value in the data set on MDAY-D2 tumor [1] (mouse, in vivo) is reported as “most efficacy”. The tumor size result in the data set with MDAY-D2 tumor [2] (five mice) is on record as “less than 0.16 gms”. In the data set on tumor cell lines (0-50 μM), the cell death entry is given as “concentration dependent increase in cell death”. Further, in the data set on tumor cell lines (within 3 days of continuous treatment), the cell death complete entry is recorded as “over 98%”. In data set [3] (0.5 mg/ml oral), the “toxicity, oral administration” value is “gastric toxicity”. Also, in data set [3] (high doses i.p.), the “toxicity, intraperitoneal administration” value is “toxic to the animals”. For the same molecule, the tolerated subcutaneous injection result in data set [3] (subcutaneous) is reported as “up to 500 μgms”.
With `Cc1occc(=O)c1[O-].Cc1occc(=O)c1[O-].[O]=[V+2]` [BMOV, bis(methylmaltolato) oxovanadium (IV)], the “percent inhibition of collagenase gene expression” value with collagenase is recorded as 78%. Besides, the “percent inhibition of IL-1α gene expression” value with IL-1α stood at 85%.
